PMC9280334 (Frontiers in Chemistry, 2022)
“And” between values parts separate entries of the source, which are not always exact repeats. Equal entries are not always repeated.

Columns and labels:
[1] = molecular target: T1, AChE (electric eel) (Electrophorus electricus, UniProt O42275); test: biochemical; assay type: biochemical; settings: for IC50: electric eel AChE, mean ± SEM of three experiments
T1 construct: purchased Sigma-Aldrich
Procedure: (§1) AChE, BuChE, 5,5'-dithiobis (2-nitrobenzoic acid) (DTNB), acetyl- and butyrylthiocholine iodides were purchased from Sigma-Aldrich. Five different concentrations of the corresponding compounds in ethanol-DMSO (9:1) were prepared. […] After 3 min of incubation, the substrate solution (acetylthiocholine iodide or butyrylthiocholine iodide, 0.05 M) was added and then incubated for at least 1 min at 25°C. […] The inhibition curve was obtained by plotting the percentage of enzyme activity (100% for the reference) versus the logarithm of the tested compound concentration. […]

[2] = molecular target: T2, BuChE (equine serum) (Equus caballus, UniProt P81908); test: biochemical; assay type: biochemical; settings: for IC50: equine serum BuChE, mean ± SEM of three experiments
T2 construct: purchased Sigma-Aldrich
Procedure: as §1

[3] = test system: PC12 cells; test: Neuroprotection against H2O2-induced cell death in PC12 cells (MTT); assay type: cell-based; settings: H2O2 (150 μM)-induced injury, mean ± SEM
Procedure: The cell viability was measured using MTT [3-(4,5-dimethylthiazol-2-yl)-2,5-diphenyl tetrazolium bromide] assay ([Datki et al., 2003]). PC12 cells (from the Iranian Biological Resource Center, IBRC) received different treatments, including no treatment (control), 150 μM H2O2 alone, or 150 μM H2O2 in combination with 0.1–50 μM of the tested compound. The cells were seeded at 1 × 10^4 cells/well and incubated at 37 °C under a 5% CO2 atmosphere for 24 h, then treated with the tested compound and incubated for 3 h. Next, the cells were exposed to H2O2 for 2 h again. The MTT solution (20 μl, 5 mg/ml) was next replaced with the medium and incubated for 4 h. 100 μl of DMSO was added to dissolve the formazan precipitate. Absorbance was then measured at 570 nm using a multi-mode plate reader (Biotek, Winooski, VT). Cell viability is expressed as a percentage relative to the untreated control.

[4] = test system: SH-SY5Y cells; test: Cytotoxicity on SH-SY5Y cells (MTT); assay type: cell-based, human; settings: for Cytotoxic effect on SH-SY5Y cells: 1 μM; for SH-SY5Y cell viability (% of control): cytotoxic effect, 1 µM compound alone, MTT, mean ± SEM
Procedure: (§2) Cell culture chemicals were purchased from Lonza, HyClone, or Thermo Scientific. Human neuroblastoma SH-SY5Y cells were maintained in Dulbecco’s modified Eagle’s medium (DMEM) supplemented with 10% FBS, 1% L-glutamine, and 1% antibiotic mix at 37°C in a humidified atmosphere containing 5% CO2. Cell viability was determined using a thiazolyl blue tetrazolium bromide [3-(4,5-dimethyl-2-thiazolyl)-2,5-diphenyl-2H-tetrazolium bromide] (MTT) assay ([Datki et al., 2003]). SH-SY5Y cells were seeded into 384-well plates at 3,000 cells per well and treated with novel compounds at a concentration of 1 μM, 3 h prior to the addition of Aβ1–42 (5 μM). After 24 h of incubation, 5 μl of the MTT reagent (5 mg/ml) was added to each well. 40 μl of DMSO was used to dissolve formazan crystals. Absorbance values were measured at 690 and 570 nm using a BMG Omega Fluorostar microplate reader.

[5] = test system: SH-SY5Y cells; test: Neuroprotection against Aβ1-42-induced cytotoxicity in SH-SY5Y cells (MTT); assay type: cell-based, human; settings: for SH-SY5Y cell viability (% of control): 1 µM compound before 5 μM Aβ1-42, MTT, mean ± SEM
Procedure: as §2, with “(MTT) assay ([Datki et al., 2003]).” left out

[6] = molecular target: T3, Aβ1-42 (Homo sapiens, UniProt P05067); test: Inhibition of self-induced Aβ1-42 aggregation (ThT assay); assay type: biochemical; settings: for Inhibition of self-induced Aβ aggregation: Aβ1-42 20 μM, compound 100 μM, after 48 h, ThT, mean ± SEM of three experiments; for Inhibition of Aβ aggregation, fold more effective than the reference drug donepezil: self-induced Aβ aggregation, ThT assay
T3 construct: Amyloid-β protein 1–42 (Sigma A9810) was dissolved; purchased Sigma A9810
Procedure: Inhibitory properties of the compounds on self-induced and AChE-induced aggregation of amyloid-β protein 1–42 was determined using a thioflavin T (ThT)-based fluorescence assay with slight modifications ([Levine, 1993]). The ThT excitation/emission was measured at 448 nm/490 nm at 48 h using a SpectraMax® Microplate Reader. Amyloid-β protein 1–42 (Sigma A9810) was dissolved in Phosphate Buffer Saline pH 7.4 (PBS, HyClone Thermo Scientific) containing ammonium hydroxide (1%). Aβ1-42 (50 μM) was incubated for 24 h at 37°C for prefibrillation.
(§3) To determine AChE-induced Aβ1-42 aggregation, Aβ1-42 (20 μl) ± human recombinant AChE (0.01 u/ml, Sigma C1682) were added to […] of PBS buffer pH 7.4 including 0.15 M NaCl and 20 μM thioflavin T (ThT). The mixture was incubated at 37°C in the absence and presence of the compounds (100 μM) and the fluorescence intensities were determined. Due to the presence of the tested compounds, inhibition of self- or AChE-induced aggregation percent was determined by the following calculation: [100-((IFi/IFo) × 100)] where IFi and IFo are the fluorescence intensities obtained for Aβ ± AChE in the presence and in the absence of inhibitors.

[7] = molecular target: T4, Aβ1-42 and AChE (human recombinant AChE) (Homo sapiens, UniProt P22303); test: Inhibition of AChE-induced Aβ1-42 aggregation (ThT assay); assay type: biochemical; settings: Aβ1-42 and AChE (0.01 u/ml), compound 100 μM, mean ± SEM of three experiments, read-out: Inhibition of AChE-induced Aβ aggregation
T4 construct: Amyloid-β protein 1–42 (Sigma A9810) was dissolved; purchased Sigma C1682 (AChE); A9810 (Aβ1-42)
Procedure: Amyloid-β protein 1–42 (Sigma A9810) was dissolved in Phosphate Buffer Saline pH 7.4 (PBS, HyClone Thermo Scientific) containing ammonium hydroxide (1%). Aβ1-42 (50 μM) was incubated for 24 h at 37°C for prefibrillation.
as §3

[8] = ratio of IC50 values vs Donepezil

T1 sequence (O42275 24-633): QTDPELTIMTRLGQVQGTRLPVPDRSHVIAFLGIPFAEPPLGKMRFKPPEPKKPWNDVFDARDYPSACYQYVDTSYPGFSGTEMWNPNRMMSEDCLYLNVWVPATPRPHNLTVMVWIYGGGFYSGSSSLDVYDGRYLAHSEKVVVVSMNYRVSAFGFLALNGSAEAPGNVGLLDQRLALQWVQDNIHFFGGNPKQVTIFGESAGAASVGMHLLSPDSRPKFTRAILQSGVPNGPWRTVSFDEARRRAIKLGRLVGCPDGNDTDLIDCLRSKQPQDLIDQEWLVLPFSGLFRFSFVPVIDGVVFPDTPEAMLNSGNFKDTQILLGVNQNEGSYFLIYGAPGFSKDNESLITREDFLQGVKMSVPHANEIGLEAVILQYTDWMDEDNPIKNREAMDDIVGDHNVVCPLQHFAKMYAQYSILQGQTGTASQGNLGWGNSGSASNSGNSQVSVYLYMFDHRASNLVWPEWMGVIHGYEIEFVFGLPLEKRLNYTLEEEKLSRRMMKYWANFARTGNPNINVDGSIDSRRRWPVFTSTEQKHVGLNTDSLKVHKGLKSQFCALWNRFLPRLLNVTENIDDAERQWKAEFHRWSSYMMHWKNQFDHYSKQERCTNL
T3 sequence (P05067 672-713 limits assumed): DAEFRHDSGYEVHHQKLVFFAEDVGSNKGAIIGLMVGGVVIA
T4 sequence (P22303 32-614): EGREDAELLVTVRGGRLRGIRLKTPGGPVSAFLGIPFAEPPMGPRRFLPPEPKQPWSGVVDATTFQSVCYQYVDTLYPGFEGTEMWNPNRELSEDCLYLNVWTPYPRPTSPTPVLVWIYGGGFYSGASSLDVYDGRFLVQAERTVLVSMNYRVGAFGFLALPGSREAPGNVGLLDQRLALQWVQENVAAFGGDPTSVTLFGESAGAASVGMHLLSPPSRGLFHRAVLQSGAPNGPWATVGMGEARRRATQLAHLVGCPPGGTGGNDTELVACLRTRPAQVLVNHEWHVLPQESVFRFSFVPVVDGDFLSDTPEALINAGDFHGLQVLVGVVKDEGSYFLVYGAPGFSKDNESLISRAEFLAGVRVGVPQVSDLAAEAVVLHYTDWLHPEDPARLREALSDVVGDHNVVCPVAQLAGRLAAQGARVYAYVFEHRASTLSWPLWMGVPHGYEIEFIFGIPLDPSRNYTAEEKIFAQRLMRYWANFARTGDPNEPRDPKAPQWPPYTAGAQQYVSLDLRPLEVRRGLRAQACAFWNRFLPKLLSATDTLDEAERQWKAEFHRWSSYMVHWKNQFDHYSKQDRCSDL
T2 sequence (P81908 whole entry): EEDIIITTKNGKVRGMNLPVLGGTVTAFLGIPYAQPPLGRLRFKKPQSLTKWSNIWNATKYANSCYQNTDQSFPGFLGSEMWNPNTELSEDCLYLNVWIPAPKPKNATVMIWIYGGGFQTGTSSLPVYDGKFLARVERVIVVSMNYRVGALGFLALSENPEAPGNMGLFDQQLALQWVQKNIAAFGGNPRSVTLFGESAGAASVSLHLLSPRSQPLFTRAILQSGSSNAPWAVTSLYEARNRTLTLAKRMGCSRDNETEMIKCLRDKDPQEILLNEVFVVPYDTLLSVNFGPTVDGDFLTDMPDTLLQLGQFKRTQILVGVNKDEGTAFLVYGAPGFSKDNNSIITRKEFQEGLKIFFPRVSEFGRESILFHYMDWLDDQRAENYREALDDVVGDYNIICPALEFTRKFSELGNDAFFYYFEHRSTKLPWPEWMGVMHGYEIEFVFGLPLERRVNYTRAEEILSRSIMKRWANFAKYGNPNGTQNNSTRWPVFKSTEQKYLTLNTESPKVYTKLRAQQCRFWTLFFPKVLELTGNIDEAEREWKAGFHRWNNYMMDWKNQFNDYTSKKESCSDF

Structure (SMILES) | IC50 [1] | IC50 [2] | BuChE inhibition, times more active than the standard drug Donepezil [2, 8] | PC12 cell viability (% of control) ([3]; 0.1 μM compound) | PC12 cell viability (% of control) ([3]; 1 μM compound) | PC12 cell viability (% of control) ([3]; 5 μM compound) | PC12 cell viability (% of control) ([3]; 10 μM compound) | PC12 cell viability (% of control) ([3]; 20 μM compound) | PC12 cell viability (% of control) ([3]; 50 μM compound) | Cytotoxic effect on SH-SY5Y cells [4] | SH-SY5Y cell viability (% of control) [4] | Neuroprotective effect against Aβ1-42-induced cytotoxicity in SH-SY5Y cells ([5]; 1 μM) | SH-SY5Y cell viability (% of control) [5] | Inhibition of self-induced Aβ aggregation [6] | Inhibition of Aβ aggregation, fold more effective than the reference drug donepezil [6] | inhibition at 100 µM [7] | AChE inhibition, times more active than the standard drug Donepezil [1, 8]
CN(C)c1cc[n+](CCCOc2ccc(-c3cc4cc([N+](=O)[O-])ccc4oc3=O)cc2)cc1.[Br-] [Compound 3t, 4-(Dimethylamino)-1-(3-(4-(6-nitro-2-oxo-2H-chromen-3-yl)phenoxy)propyl)pyridin-1-ium Bromide] | 14 ± 0.9 nM | 9 ± 0.4 nM | 305 times | 38.3 ± 0.9 % of control | 45.3 ± 0.7 % of control | 53.6 ± 0.7 % of control | 56.3 ± 1.6 % of control | 68.2 ± 0.1 % of control | 71.8 ± 1.1 % of control | no cytotoxic effect | 84.8 ± 6.8 % of control | could not protect neuronal cells | 59.7 ± 2.8 % of control | 66.4 ± 4.7% | about 2 fold | 52.5 ± 4.9% | –
O=c1oc2ccc([N+](=O)[O-])cc2cc1-c1ccc(OCCC[n+]2ccccc2)cc1.[Br-] [Compound 3f, 1-(3-(4-(6-Nitro-2-oxo-2H-chromen-3-yl)phenoxy)propyl)pyridinium Bromide] | 2 nM | 24 ± 5 nM | – | 34.1 ± 1.0 % of control | 42.8 ± 1.4 % of control | 43.1 ± 1.5 % of control | 45.0 ± 0.8 % of control | 48.3 ± 0.4 % of control | 50.8 ± 0.6 % of control | no cytotoxic effect | 83.6 ± 3.4 % of control | – | 89 % of control and 89.0 ± 9.8 % of control | 84.7 ± 1.6% | about 2 fold | 87.2 ± 5.7% | 7 times
O=c1oc2ccccc2cc1-c1ccc(OCCC[n+]2ccccc2)cc1.[Br-] [Compound 3a, 1-(3-(4-(2-Oxo-2H-chromen-3-yl)phenoxy)propyl)pyridinium Bromide] | 4 nM | 84 ± 4 nM | – | 39.4 ± 1.7 % of control | 42.2 ± 1.3 % of control | 53.6 ± 1.4 % of control | 55.6 ± 0.1 % of control | 57.4 ± 0.4 % of control | 58.3 ± 1.4 % of control | no cytotoxic effect | 81.2 ± 10.0 % of control | – | 79 % of control and 79.1 ± 4.0 % of control | 73.3 ± 15.4% | about 2 fold | 76 ± 1.6% | –
